# Measured values from PubChem BioAssay (NCI).
#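 Method: 48-hour compound exposure of cells in 96-well plates, five concentrations, linear interpolation of endpoints. GI50 = concentration required for 50% inhibition of growth. The concentration for full growth arrest is given as TGI.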
# Experiments:
# Test in all cases: inhibition of tumour cell growth, NCI panel, 48 h
# CCRF-CEM leukemia = system: CCRF-CEM leukemia
# HT29 colon = system: HT29 colon
# SW-620 colon = system: SW-620 colon
# PC-3 prostate = system: PC-3 prostate
# DU-145 prostate = system: DU-145 prostate
# MOLT-4 leukemia = system: MOLT-4 leukemia
# T-47D breast = system: T-47D breast
# RPMI-8226 leukemia = system: RPMI-8226 leukemia
# ACHN renal = system: ACHN renal
# HCT-15 colon = system: HCT-15 colon
# 786-0 renal = system: 786-0 renal
# BT-549 breast = system: BT-549 breast
# MDA-MB-435 = system: MDA-MB-435
# HCC-2998 colon = system: HCC-2998 colon
# TK-10 renal = system: TK-10 renal
# OVCAR-4 ovarian = system: OVCAR-4 ovarian
# IGROV1 ovarian = system: IGROV1 ovarian
# MDA-MB-468 breast = system: MDA-MB-468 breast
# KM12 colon = system: KM12 colon
# K-562 leukemia = system: K-562 leukemia
# SF-268 CNS = system: SF-268 CNS
# OVCAR-5 ovarian = system: OVCAR-5 ovarian
# LOX IMVI melanoma = system: LOX IMVI melanoma
# SK-MEL-5 melanoma = system: SK-MEL-5 melanoma
# UACC-257 melanoma = system: UACC-257 melanoma
# SK-MEL-2 melanoma = system: SK-MEL-2 melanoma
# HOP-92 NSCLC = system: HOP-92 NSCLC
# OVCAR-3 ovarian = system: OVCAR-3 ovarian
smiles,measurement,setting,value
Clc1ccc(/C=N/Nc2ncnc3sc4c(c23)CCN(Cc2ccccc2)C4)cc1,GI50,CCRF-CEM leukemia,3.51 µM
same,TGI,CCRF-CEM leukemia,25.5 µM
same,GI50,HT29 colon,3.37 µM
same,TGI,HT29 colon,13.7 µM
same,GI50,SW-620 colon,3.85 µM
same,TGI,SW-620 colon,31.9 µM
same,GI50,PC-3 prostate,3.63 µM
same,TGI,PC-3 prostate,32.5 µM
same,GI50,DU-145 prostate,5.67 µM
same,TGI,DU-145 prostate,> 100 µM
same,GI50,MOLT-4 leukemia,4.53 µM
same,TGI,MOLT-4 leukemia,34.5 µM
same,GI50,T-47D breast,22.5 µM
same,TGI,T-47D breast,> 100 µM
same,GI50,RPMI-8226 leukemia,5.39 µM
same,TGI,RPMI-8226 leukemia,84.9 µM
same,GI50,ACHN renal,15.8 µM
same,TGI,ACHN renal,> 100 µM
same,GI50,HCT-15 colon,4.04 µM
same,TGI,HCT-15 colon,25.2 µM
same,GI50,786-0 renal,3.85 µM
same,TGI,786-0 renal,14.8 µM
same,GI50,BT-549 breast,23.4 µM
same,TGI,BT-549 breast,> 100 µM
same,GI50,MDA-MB-435,7.26 µM
same,TGI,MDA-MB-435,> 100 µM
same,GI50,HCC-2998 colon,10.7 µM
same,TGI,HCC-2998 colon,> 100 µM
same,GI50,TK-10 renal,20.8 µM
same,TGI,TK-10 renal,41.9 µM
same,GI50,OVCAR-4 ovarian,2760 nM
same,TGI,OVCAR-4 ovarian,7.52 µM
same,GI50,IGROV1 ovarian,20.1 µM
same,TGI,IGROV1 ovarian,> 100 µM
same,GI50,MDA-MB-468 breast,3.72 µM
same,TGI,MDA-MB-468 breast,15.8 µM
same,GI50,KM12 colon,11.9 µM
same,TGI,KM12 colon,> 100 µM
same,GI50,K-562 leukemia,4.16 µM
same,TGI,K-562 leukemia,54.9 µM
same,GI50,SF-268 CNS,8.38 µM
same,TGI,SF-268 CNS,> 100 µM
same,GI50,OVCAR-5 ovarian,20.9 µM
same,TGI,OVCAR-5 ovarian,> 100 µM
same,GI50,LOX IMVI melanoma,2900 nM
same,TGI,LOX IMVI melanoma,9.74 µM
same,GI50,SK-MEL-5 melanoma,18.6 µM
same,TGI,SK-MEL-5 melanoma,> 100 µM
same,GI50,UACC-257 melanoma,9.6 µM
same,TGI,UACC-257 melanoma,76.9 µM
same,GI50,SK-MEL-2 melanoma,16 µM
same,TGI,SK-MEL-2 melanoma,42.7 µM
same,GI50,HOP-92 NSCLC,2400 nM
same,TGI,HOP-92 NSCLC,6.7 µM
same,GI50,OVCAR-3 ovarian,2490 nM
